Data on three compounds can be found in patent publication US8975232B2, “Macrocyclic kinase inhibitors and uses thereof” (President and Fellows of Harvard College, priority 2010, dated 2015).

Like-named read-outs stand apart in the source and are kept apart here.

Test [1] addresses T1, Src kinase (Homo sapiens, UniProt P12931). Description: In vitro selection of DNA-templated macrocycle library against GST-fused target. Particulars: one round of selection; DNA-linked library member. The class given is binding. From the text: Multiple representatives were chosen from each protein class so that we could compare selection results within protein families. In total, we performed a single round of in vitro selection against 36 protein targets. Additionally, we also performed a selection for binding to GST (with no fused target protein) immobilized on glutathione-linked resin. Although successive rounds of selection (with or without DNA amplification and translation between rounds) can multiply net enrichment factors,^29 we hypothesized that recent advances in ultra high-throughput DNA sequencing would enable even modest enrichment factors to be robustly detected, and the findings in this work are the result of a single round of selection on each protein target.
Following in vitro selection, DNA templates linked to target-binding macrocycles were amplified in PCR reactions using primers containing “barcode” sequences specific to each selection (FIG. 3). We also amplified DNA templates from eight aliquots of the unselected library to determine the initial abundance of each library member. A set of 12 five-base barcodes used in pairwise combinations provided sufficient encoding complexity for one round of selection against 36 protein targets, a control selection against immobilized GST, and eight pre-selection library samples (Table 3). These barcodes were designed to differ by at least three bases from one another so that common DNA sequencing errors would not preclude barcode assignment. After affinity selection and PCR amplification, barcoded samples were combined in equimolar amounts and submitted for ultra high-throughput DNA sequencing^46,47 as a single sample.
To rapidly identify the DNA-linked macrocycles that survived target affinity selection, we used Solexa (Illumina) DNA sequencing technology.^48 Because standard Solexa sequencing read lengths at the time of this experiment were shorter than the length of our barcoded library templates (84 base pairs), the paired-end sequencing method, which provides both forward and reverse sequencing reads for each template, was used. We created a PERL computer program to analyze the large amount of data emerging from high-throughput sequencing. First, forward and reverse sequence reads were merged to give complete template sequences (FIG. 4a). Each complete DNA sequence was converted into a combination of a barcode (selection identity) and three codons (building block identities). Template sequences were then binned by barcode to deconvolute the results of each selection. The abundance fraction of each library member was determined within each selection by counting the number of corresponding DNA sequence occurrences and dividing by the total number of interpretable sequence reads for that selection. Finally, enrichment factors for each library member were computed by dividing post-selection abundance fraction by pre-selection abundance fraction. In total, we received 25.6 million paired forward and reverse sequence reads from two Solexa sequencing runs. Of these, all four codons (which require five out of six correct bases per codon for the building blocks, and three out of three correct bases per codon for the scaffold^24) and the selection barcode (which requires four out of five correct bases) could be conclusively assigned for 12.4 million sequences. As a result, we obtained ˜200,000 sequence reads for each selection, and 1.7 million sequence reads of the pre-selection library.
In vitro selections of the 13,824-membered library were conducted exactly as described above for the positive control selections. For each selection, 5 pmol of library were used. PCR amplification of selection survivors was performed with 5′-barcoded forward and reverse primers. Barcoded PCR amplicons were quantitated using Picogreen dsDNA quantitation reagent (Invitrogen), mixed in equimolar amounts, and submitted for high-throughput DNA sequencing.

Test [2] addresses T1, Src kinase. Description: Z'-LYTE kinase assay (Invitrogen), Src. It counts as biochemical. More on the design: full-length kinase in the Z-LYTE assay vs. kinase domain in the current study; purchased Millipore. As for the experimental part:
Nine macrocycles enriched in the Src selection (FIG. 5) and synthesized as described above were assayed in vitro for the ability to inhibit Src kinase activity. Kinase activity was assayed in the presence of varying concentrations of macrocycle using the FRET-based Z′-LYTE assay (Invitrogen).
(§1) Src IC50 determinations and single-point inhibition measurements were performed using Invitrogen's Z′-LYTE Tyr 02 assay kit according to the manufacturer's protocols. All kinase assays were performed at ATP concentrations near KM,ATP values, except where noted otherwise. Active human Src kinase was obtained from Millipore. For kinome profiling and IC50 determinations against non-Src kinases, compounds were submitted to Invitrogen's SelectScreen Kinase Profiling Service.

Test [3] deals with ABL1 (Homo sapiens, UniProt P00519). Description: SelectScreen kinase profiling. The class given is biochemical. As for the experimental part:
as §1

The target in test [4] is T2, AURKA (Aurora A) (Homo sapiens, UniProt O14965).
T2 sequence (O14965 1-403): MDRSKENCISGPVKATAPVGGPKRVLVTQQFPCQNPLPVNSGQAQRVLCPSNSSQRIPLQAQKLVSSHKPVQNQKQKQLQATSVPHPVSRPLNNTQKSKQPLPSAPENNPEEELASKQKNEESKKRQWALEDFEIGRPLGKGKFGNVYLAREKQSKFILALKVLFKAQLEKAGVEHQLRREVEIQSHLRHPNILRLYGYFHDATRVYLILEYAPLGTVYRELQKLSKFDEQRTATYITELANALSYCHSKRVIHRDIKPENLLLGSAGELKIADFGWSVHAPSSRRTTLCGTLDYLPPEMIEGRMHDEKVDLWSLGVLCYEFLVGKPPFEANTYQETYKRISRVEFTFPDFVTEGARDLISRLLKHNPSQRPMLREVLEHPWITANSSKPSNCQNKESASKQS
Description: SelectScreen kinase profiling. The class given is biochemical. As for the experimental part:
as §1

Test [5] deals with T3, Src83-533 (chicken c-Src 83-533) (Gallus gallus, UniProt P00523).
T3 construct: the regulatory SH3 and SH2 domains (chicken c-Src 83-533); made in house
Description: Kinase activity assay with longer Src construct including SH3 and SH2 domains. The class given is biochemical. Particulars: Src wild-type construct containing SH3 and SH2 domains. The text has this: (§2) Kinase domain constructs of human c-Abl (residues 229-512), chicken c-Src (residues 251-533 and residues 83-533), murine Lck (residues 227-509), and human Hck (residues 166-445) were expressed as previously described (Seeliger, Young et al. 2005; Seeliger, Nagar et al. 2007; the entire contents of each of which are incorporated by reference herein). Mutations were introduced into chicken c-Src (residues 251-533) (T338I, C277Q, L297M) by site-directed mutagenesis and verified by DNA sequencing.
In vitro kinase inhibition assays were performed using either a continuous spectrophotometric assay or a FRET-based endpoint assay. […]
To address this discrepancy, the two major differences between the fluorescent peptide-based Z′-LYTE assay and the continuous spectrophotometric assay employed here were investigated: the kinase construct used (full-length kinase in the Z-LYTE assay vs. kinase domain in the current study) and the peptide identity and concentration (5 μM fluorescent Abl-optimal substrate peptide in the previous study vs. 100 μM Src-optimal substrate peptide in the current study). […] The IC50 values determined for MC1.2 and MC4.1 were close to the concentration of the kinase used in the assay and therefore these values only represent an upper estimate of the real potency of these compounds.

The target of test [6] is T4, Src kinase domain (chicken c-Src residues 251-533) (Gallus gallus, UniProt P00523).
T4 construct: chicken c-Src (residues 251-533 and residues 83-533); made in house
Description: Continuous spectrophotometric kinase activity assay. The class given is biochemical. Particulars: Src kinase domain; 5 μM ATP, 100 μM Src optimal peptide.

Test [7] has as its target T5, Src kinase domain (Gallus gallus, UniProt P00523).
T5 construct: chicken c-Src (residues 251-533 and residues 83-533); made in house
Put plainly: Fluorescence anisotropy binding assay. More on the design: species or system chicken. Particulars: fluorescein-labeled macrocycle, read-out: dissociation constant (KD). As for the experimental part:
The change in fluorescence anisotropy of fluorescein-labeled MC1, MC4 and MC9 at 518 nm upon excitation at 492 nm was monitored with a HORIBA Jobin Yvon FluoroMax-4 (Edison, N.J.) spectrofluorimeter. Kinase was titrated to 0.5 μM of the fluorescently labeled macrocycle in 100 mM Tris pH 8.0, 10 mM MgCl2 at 25° C. After equilibration, the increase in the fluorescence anisotropy of the fluorescently labeled ligand was recorded and fitted against a quadratic binding equation in Kaleidagraph (Synergy Software, Reading Pa.) to yield the dissociation constant KD.
To clarify the inhibitory mechanism of the compounds further, the binding affinity of fluorescently labeled MC1, MC4, and MC9 to Src kinase domain was determined in a fluorescence anisotropy assay (FIG. 21).

The subject of test [8] is Src Thr338Ile. Description: Inhibition of Src gatekeeper mutant. It counts as biochemical, chicken.
Source text: as §2
For the FRET-based endpoint assay, kinase assays were performed using Invitrogen's Z′-LYTE kinase assay using the Tyr 02 substrate peptide (based upon the optimal Abl substrate peptide […]) according to the manufacturer's instructions. Assays were performed at near KM ATP concentrations for full-length c-Src and full-length c-Src T338I-50 μM and 7 μM, respectively.

Test [9] deals with protein kinases. Particulars: judged by similar criteria; cited from earlier work.

T1 sequence (P12931 whole entry, the tested form may be a part): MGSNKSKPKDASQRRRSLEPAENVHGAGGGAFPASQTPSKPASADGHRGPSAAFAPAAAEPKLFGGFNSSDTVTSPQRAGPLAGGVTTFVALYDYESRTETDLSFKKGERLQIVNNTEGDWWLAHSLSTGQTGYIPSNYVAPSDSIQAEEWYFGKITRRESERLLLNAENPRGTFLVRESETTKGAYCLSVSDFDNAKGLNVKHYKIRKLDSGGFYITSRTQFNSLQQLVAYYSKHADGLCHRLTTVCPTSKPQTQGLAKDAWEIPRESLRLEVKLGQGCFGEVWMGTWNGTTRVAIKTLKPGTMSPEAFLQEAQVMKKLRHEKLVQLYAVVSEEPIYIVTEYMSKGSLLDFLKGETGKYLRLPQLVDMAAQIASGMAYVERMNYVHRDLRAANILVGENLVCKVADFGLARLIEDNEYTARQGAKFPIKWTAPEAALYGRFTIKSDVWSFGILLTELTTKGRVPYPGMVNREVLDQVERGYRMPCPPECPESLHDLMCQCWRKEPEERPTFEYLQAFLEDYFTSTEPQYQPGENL
Sequence of ABL1 (P00519 whole entry): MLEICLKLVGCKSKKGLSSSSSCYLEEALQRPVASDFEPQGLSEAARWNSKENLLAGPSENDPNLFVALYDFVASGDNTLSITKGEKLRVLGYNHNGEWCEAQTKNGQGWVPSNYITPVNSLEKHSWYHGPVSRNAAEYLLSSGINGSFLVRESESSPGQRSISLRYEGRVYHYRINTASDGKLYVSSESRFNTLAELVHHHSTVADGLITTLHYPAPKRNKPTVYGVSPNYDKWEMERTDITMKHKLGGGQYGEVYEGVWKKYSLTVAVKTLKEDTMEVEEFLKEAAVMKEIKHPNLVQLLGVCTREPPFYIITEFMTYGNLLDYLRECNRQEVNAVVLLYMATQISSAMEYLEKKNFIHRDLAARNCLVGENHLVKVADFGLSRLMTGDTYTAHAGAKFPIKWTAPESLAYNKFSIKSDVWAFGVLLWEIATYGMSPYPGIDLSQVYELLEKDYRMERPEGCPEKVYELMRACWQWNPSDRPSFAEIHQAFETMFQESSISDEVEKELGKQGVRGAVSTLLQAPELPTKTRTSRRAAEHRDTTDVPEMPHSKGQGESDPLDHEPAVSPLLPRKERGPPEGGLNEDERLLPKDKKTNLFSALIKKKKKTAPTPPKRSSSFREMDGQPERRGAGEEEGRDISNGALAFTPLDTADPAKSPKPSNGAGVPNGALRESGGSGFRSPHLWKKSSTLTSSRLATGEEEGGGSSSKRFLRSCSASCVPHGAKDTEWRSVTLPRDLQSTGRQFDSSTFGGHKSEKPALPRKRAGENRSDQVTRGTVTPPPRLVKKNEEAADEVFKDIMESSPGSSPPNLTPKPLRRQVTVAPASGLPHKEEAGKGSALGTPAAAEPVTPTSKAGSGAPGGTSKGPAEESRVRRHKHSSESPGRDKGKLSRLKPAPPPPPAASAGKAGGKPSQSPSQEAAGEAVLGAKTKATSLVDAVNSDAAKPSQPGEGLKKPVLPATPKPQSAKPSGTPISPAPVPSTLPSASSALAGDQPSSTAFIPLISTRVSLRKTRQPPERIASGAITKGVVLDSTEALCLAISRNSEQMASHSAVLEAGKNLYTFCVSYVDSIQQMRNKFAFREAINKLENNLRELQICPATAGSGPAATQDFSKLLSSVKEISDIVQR

In the case of `NC(=O)[C@@H]1CCNC(=O)[C@H](CCCNC(=O)c2cnccn2)NC(=O)[C@H](Cc2ccco2)NC(=O)[C@H](CC2CC2)NC(=O)C=CC(=O)N1` [Macrocycle A11-B1-C5-D7], the “enrichment factor after selection against Src kinase” value in [1] worked out at 62 fold. The “difference in potency between cis and trans stereoisomers (Src)” value in test [2] is roughly 10 fold. The “selectivity for Src over Abl kinase” value in test [3] is recorded as greater than 50 fold. Also, the “selectivity for Aurora A among the Aurora family” value in test [4] was greater than 100 fold.
By IC50 is commonly meant the concentration needed to halve the response being measured. Lower therefore signals inhibition by little substance. A word on the Kd: it is the free concentration of one partner at which half of the binding sites on the other are occupied at equilibrium, for simple one-to-one binding. As for `NC(=O)[C@@H]1CCNC(=O)[C@H](CCCNC(=O)c2cnccn2)NC(=O)[C@H](CC2CCCCC2)NC(=O)[C@H](C/C=C/c2ccccc2)NC(=O)/C=C\C(=O)N1` [cis-A11-B8-C10-D7], the IC50 is 25 µM in [2] (Z'-LYTE, ATP near KM); 0.39 µM in test [5]; 69 µM in test [6]; 1 µM in test [8] (Src Thr338Ile containing SH3 and SH2 domains). The figures for the Kd in [7] (250 μM AMP-PNP) and in test [7] (no competitor) were 12.6 µM and 3.6 µM, respectively. Besides, the “lower potency against gatekeeper mutant than against Src wild-type” value in test [8] is recorded as “about 3 fold”.
Consider `CN[C@@H]1C[C@H]2O[C@@](C)([C@@H]1OC)n1c3ccccc3c3c4c(c5c6ccccc6n2c5c31)C(=O)NC4` [staurosporine], for which the selectivity score in test [9] is reported as 0.50.
